In data set [1] the test system is STAT3 and apoptotic markers in HSMC. The data set can be described thus: Western blot of STAT3 signaling and apoptotic markers in HSMC. Type of data set: cell-based, human. To be noted: 10 μM, 24 h. The method, then:
(§1) Cells were grown in RPMI 1640 medium and treated with DMSO (control) or HO-3867 ([…]). Equal volumes of DMSO (0.1% v/v) were present in both groups. After treatment, cell lysates were prepared in nondenaturing lysis buffer (10 mM Tris-HCl (pH 7.4), 150 mM NaCl, 1% Triton X-100, 1 mM EDTA, 1 mM EGTA, 0.3 mM phenylmethylsulfonyl fluoride, 0.2-mM sodium orthovanadate, 0.5% NP-40, 1 lag/ml aprotinin, and 1 lag/ml leupeptin). Cell lysates were centrifuged at 10,000 RPM for 20 min at 4° C., and the supernatant was separated. The protein concentration in the lysates was determined using a Pierce detergent-compatible protein assay kit. For Western blotting, 25 to 50 lag of protein lysate per sample was denatured in 2× sample buffer and subjected to SDS-PAGE on a 10 or 12% Tris-glycine gel. The separated proteins were transferred to a PVDF membrane and then the membrane was blocked with 5% nonfat milk powder (w/v) in 10 mM Tris, 100 mM NaCl, 0.1% Tween 20 for 1 h at room temperature or overnight at 4° C. The membranes were incubated with the primary antibodies described above. The bound antibodies were detected with horseradish peroxidase (HRP)-labeled sheep anti-mouse IgG or HRP-labeled donkey anti-rabbit IgG (Amersham) using an enhanced chemiluminescence detection system (ECL Advanced Kit). Protein expression was determined using Image Gauge version 3.45.

A short description of data set [2]: Superoxide radical-scavenging by EPR (xanthine/xanthine oxidase, DEPMPO competition). To be noted: 100 μM compound versus 1 mM DEPMPO. As for the experimental part:
Electron paramagnetic resonance (EPR) spectroscopy was used to quantitatively determine the relative superoxide-scavenging ability of the DAPs in comparison with DEPMPO, a known superoxide scavenger. Superoxide radicals were generated using an aerated solution of PBS (pH 7.4) containing xanthine (0.2 mM), xanthine oxidase (0.02 U/ml), and diethylenetriamine pentaacetic acid (0.1 mM). The superoxide radicals (O2^−) generated by the xanhine-xanthine oxidase reaction were reacted with DEPMPO (1 mM) to form a paramagnetic adduct (DEPMPO-OOH), which was detected using X-band (9.8 GHz) EPR spectroscopy. In separate experimental groups, […], or SOD (500 U/ml) was added to the reaction mixture. […] The generation of the DEPMPO-OOH adduct was measured at 10 min after initiation of the reaction.
Both N-hydroxypyrroline and nitroxide have antioxidant properties including SOD- and catalase-mimetic activity. Therefore, we determined the superoxide radical-scavenging ability of DAPs using a competitive reaction in the presence of DEPMPO. Superoxide radicals were generated using an aerobic solution of xanthine and xanthine oxidase and detected as DEPMPO-OOH adduct by EPR spectroscopy. The DAP compounds (100 μM) were used to compete with 1 mM DEPMPO for the superoxide ions. SOD (4.2 μM) was used as a positive control.

The target in data set [3] is T1, FAS in A2780 and SKOV3 cells (Homo sapiens, UniProt P49327).
T1 construct: endogenous in cells; host or cells: A2780 and SKOV3 human ovarian cancer cells
The data set can be described thus: Fatty acid synthase activity assay. Format: cell-based. The following applies: 10 μM, 12 or 24 h, both cell lines. The method, then: The FAS activity was determined spectrophotometrically at 37° C. in particle-free supernatants by measuring the decrease of absorption at 340 nm due to oxidation of NADPH.

In data set [4] the test system is A2780 cells. Description: Cell viability by MTT assay, A2780 cells. Type of data set: cell-based, human. To be noted: 24 hours, dose series. As for the experimental part: Cell viability was determined by a colorimetric assay using MTT. In the mitochondria of living cells, yellow MTT undergoes a reductive conversion to formazan, producing a purple color. Cells, grown to […] confluence in 75-mm flasks, were trypsinized, counted, seeded in 96-well plates with an average population of 7,000 cells per well, incubated overnight, and then treated with curcumin, H-4073, or HO-3867 for 24 hours. All experiments were done using eight replicates and, repeated at least thrice.

Data set [5] has as its system pSTAT3 (Tyr705 and Ser727), cleaved caspase-3 and PARP in A2780, A549, HepG2, MCF-7, HCT-116 cells. Description: Western blot of STAT3 signaling and apoptotic markers in cancer cells. Format: cell-based, human. The following applies: 10 μM, 24 h. The method, then:
as §1

The subject of data set [6] is A2780 cells. Description: Cell proliferation by clonogenic assay. Type of data set: cell-based, human. To be noted: 24 hours treatment, 7 days growth. As for the experimental part: Cell survival was assessed by clonogenic assay. Cells at […] confluence were trypsinized, rinsed, seeded onto 60-mm dishes (5×10^4 cells per dish), grown for 24 hours at 37° C., and treated afterward with H-4073 or HO-3867 for 24 hours. Nontreated cells served as controls. After treatment, the cells were washed twice with PBS, trypsinized, counted, and plated in 60-mm dishes in triplicate and incubated for an additional 7 days. The colonies were then stained with crystal violet (in ethyl alcohol) and counted using an automated colony counter (ColCount, Oxford Optronix). Each experiment was repeated at least five times.

Data set [7] concerns A2780 and other cancer cells. The data set can be described thus: Metabolic conversion to nitroxide in cancer cells (EPR). Format: in vitro ADME, human. The text has this: The N-hydroxypyrroline (—NOH) moiety is capable of undergoing a reversible one-electron oxidation to its nitroxide form (—NO; FIG. 9A), which is paramagnetic and detectable by EPR spectroscopy.
In data set [8] the test system is A2780 and SKOV3 cells. The data set can be described thus: Cell-invasion (Boyden chamber) assay. Type of data set: cell-based, human. The following applies: 10 μM. As for the experimental part:
Cell-migration assay was performed by wound-healing method. Cells were plated at equal density and grown to 90% confluence. Wounds were created using a sterile pipette tip. Cells were then rinsed with medium and replaced with the fresh medium and incubated with HO-3867 (10 μM). Areas of wound were marked and photographed at various time-points with a phase-contrast microscope. Cell-invasive assay was measured by an in vitro Boyden chamber assay. Briefly, 1×10^5 cells in 0.5 ml of serum-free RPMI 1640 medium were added to the wells of 8-μm-diameter pore membrane Boyden chambers, either coated with (BD Biosciences, Franklin Lake, N.J.) or without (Corning, Corning, N.Y.) Matrigel. Cells were allowed to invade for 24 hours. Cells that had not penetrated the filters were removed by scrubbing with cotton swabs. Chambers were fixed in 100% methanol for 2 min, stained in 0.5% crystal violet for 2 min, rinsed in PBS and examined using a bright-field microscope. Values for invasion were obtained by counting five fields per membrane and represented as the average of three independent experiments performed over multiple days.

T1 sequence (P49327 whole entry): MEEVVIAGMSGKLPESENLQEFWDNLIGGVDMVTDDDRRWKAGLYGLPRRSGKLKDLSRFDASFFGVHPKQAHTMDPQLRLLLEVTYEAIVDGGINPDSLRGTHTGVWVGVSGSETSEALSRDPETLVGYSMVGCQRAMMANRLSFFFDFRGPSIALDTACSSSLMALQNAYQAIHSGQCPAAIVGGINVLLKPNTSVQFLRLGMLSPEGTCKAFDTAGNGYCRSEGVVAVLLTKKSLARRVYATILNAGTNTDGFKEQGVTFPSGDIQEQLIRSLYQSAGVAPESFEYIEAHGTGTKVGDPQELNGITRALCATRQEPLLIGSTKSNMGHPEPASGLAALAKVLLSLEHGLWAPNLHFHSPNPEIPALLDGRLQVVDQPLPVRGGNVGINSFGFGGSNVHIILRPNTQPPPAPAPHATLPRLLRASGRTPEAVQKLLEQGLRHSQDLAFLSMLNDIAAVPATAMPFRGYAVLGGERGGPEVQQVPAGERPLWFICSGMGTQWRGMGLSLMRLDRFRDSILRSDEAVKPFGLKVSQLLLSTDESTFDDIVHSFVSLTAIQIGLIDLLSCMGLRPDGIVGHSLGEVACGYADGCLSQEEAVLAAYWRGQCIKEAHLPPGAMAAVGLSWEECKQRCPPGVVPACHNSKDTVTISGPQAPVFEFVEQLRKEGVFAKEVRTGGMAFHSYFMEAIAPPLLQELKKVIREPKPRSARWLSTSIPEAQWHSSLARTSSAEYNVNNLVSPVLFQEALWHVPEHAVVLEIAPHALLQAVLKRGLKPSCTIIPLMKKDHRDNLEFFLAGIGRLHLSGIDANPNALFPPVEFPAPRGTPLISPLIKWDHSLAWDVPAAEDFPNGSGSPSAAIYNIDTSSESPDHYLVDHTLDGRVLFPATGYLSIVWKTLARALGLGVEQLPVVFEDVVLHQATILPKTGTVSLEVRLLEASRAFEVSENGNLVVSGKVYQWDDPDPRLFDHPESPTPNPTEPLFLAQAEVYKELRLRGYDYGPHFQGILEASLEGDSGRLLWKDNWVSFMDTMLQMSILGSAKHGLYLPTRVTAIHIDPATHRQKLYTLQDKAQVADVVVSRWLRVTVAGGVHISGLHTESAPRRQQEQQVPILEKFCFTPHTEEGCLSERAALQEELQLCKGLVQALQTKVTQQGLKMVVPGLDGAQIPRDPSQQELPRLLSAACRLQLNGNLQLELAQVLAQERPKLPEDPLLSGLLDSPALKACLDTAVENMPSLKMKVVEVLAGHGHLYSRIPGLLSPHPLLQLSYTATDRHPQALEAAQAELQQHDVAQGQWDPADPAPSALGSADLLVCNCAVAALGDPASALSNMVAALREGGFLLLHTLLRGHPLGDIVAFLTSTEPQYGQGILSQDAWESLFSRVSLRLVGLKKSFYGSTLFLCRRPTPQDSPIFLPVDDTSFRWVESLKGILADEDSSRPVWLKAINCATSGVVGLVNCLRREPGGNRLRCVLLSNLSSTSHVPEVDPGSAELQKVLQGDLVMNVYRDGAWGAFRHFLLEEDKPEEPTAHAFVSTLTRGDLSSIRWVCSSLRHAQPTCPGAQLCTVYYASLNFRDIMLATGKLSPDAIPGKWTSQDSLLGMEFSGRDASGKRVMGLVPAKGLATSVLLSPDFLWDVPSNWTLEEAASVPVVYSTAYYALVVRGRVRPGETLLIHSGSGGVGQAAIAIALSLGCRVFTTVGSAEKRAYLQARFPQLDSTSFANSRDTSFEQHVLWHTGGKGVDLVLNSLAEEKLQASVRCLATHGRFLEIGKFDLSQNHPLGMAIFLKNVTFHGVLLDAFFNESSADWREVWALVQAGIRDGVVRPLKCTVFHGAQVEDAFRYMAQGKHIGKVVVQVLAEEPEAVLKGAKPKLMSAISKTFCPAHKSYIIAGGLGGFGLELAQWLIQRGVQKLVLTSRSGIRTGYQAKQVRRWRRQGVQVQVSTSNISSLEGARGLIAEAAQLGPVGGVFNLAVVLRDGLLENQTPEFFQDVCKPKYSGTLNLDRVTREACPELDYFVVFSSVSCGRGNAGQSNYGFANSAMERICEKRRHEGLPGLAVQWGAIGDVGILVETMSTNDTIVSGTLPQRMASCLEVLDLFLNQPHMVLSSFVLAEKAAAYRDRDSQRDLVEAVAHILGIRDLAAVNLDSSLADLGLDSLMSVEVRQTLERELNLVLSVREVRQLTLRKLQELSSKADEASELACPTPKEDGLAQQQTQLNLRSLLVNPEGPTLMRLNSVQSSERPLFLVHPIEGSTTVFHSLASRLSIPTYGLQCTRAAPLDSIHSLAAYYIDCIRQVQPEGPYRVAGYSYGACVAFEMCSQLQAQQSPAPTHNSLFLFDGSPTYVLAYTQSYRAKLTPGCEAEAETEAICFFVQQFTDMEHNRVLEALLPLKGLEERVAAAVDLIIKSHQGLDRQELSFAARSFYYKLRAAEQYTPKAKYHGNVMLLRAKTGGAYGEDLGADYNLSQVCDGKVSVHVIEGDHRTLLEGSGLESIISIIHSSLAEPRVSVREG

For the compound `CC1(C)C=C(CN2C/C(=C\c3ccc(F)cc3)C(=O)/C(=C/c3ccc(F)cc3)C2)C(C)(C)N1O` [HO-3867, 1-[(1-oxyl-2,2,5,5-tetramethyl-2,5-dihydro-1H-pyrrol-3-yl)methyl]-(3E,5E)-3,5-bis(4-fluorobenzylidene)piperidin-4-one], the “activation of STAT3 or apoptotic markers in HSMC” value in data set [1] is on record as “did not induce any significant change”. Also, the “diminution of the DEPMPO-OOH concentration” value in data set [2] is reported as −50%. Further, the FAS activity entry in data set [3] is “significantly reduced”. Further, the “cytotoxicity, viability of A2780 cells” value in data set [4] is recorded as “significantly higher toxicity when compared with curcumin”. In addition, in data set [5], the “Tyr705 and Ser727 pSTAT3 levels in cancer cells” value is “significantly attenuated”; the “activated caspase-3 and PARP in cancer cells” value is listed as “significant elevation”. The “number of colonies (colony-forming ability)” value in data set [6] is “dose-dependent reduction in the number of colonies”. Further, in data set [7], the “EPR signal intensity of the nitroxide metabolite in A2780 cells compared to PBS” value was “fivefold increase”. In data set [7] (37° C., EPR), the “EPR spectrum (nitroxide signal) after incubation with A2780 cells” value is on record as “characteristic triplet feature”. Besides, in data set [8] (24 hours, versus untreated cells), the cell invasion entry is recorded as “significant inhibition”. For the same compound, the VEGF-induced invasion result in data set [8] (24-h incubation, versus VEGF group) is on record as “significantly inhibited”.

The values above are taken from patent publication US20120316203A1, “Compositions and Methods for Inhibition of Cancers” (THE OHIO STATE UNIVERSITY RESEARCH FOUNDATION, priority 2009, published 2012).
